What was measured:
[1] = target: T1, RORγ-LBD (Homo sapiens, UniProt P51449); assay: RORγ-Ligand Binding Domain (LBD) TR-FRET Assay; assay type: biochemical; conditions: for TR-FRET Assay Max Response: maximum response;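 as to TR-FRET Assay Max Response: 665/615 nm signal ratio set to 100 without ursolic acid or test compound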
T1 construct: made in house; host or cells: SF9 cells (baculovirus); used as diluted lysate
T1 sequence (P51449 269-508 limits assumed): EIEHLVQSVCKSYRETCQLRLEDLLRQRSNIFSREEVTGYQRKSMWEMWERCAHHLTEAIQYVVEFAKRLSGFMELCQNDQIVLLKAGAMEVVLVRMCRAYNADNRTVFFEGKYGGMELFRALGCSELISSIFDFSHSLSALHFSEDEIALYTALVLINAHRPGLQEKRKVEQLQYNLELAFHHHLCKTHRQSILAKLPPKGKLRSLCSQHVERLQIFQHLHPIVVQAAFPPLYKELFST
Method in brief: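 Lysate from SF9 cells expressing His-RORγ-LBD is diluted to about 3 nM final in 50 mM Tris pH 7.0 assay buffer. A biotin-tagged SRC1 LXXLL peptide goes in at 200 nM final, plus ursolic acid at 2 μM final. Test compounds carry 1% DMSO final; signal read by TR-FRET.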

[2] = target: T2, Gal4-RORγ-LBD (Homo sapiens, UniProt P51449); assay: Gal4-RORγ Luciferase Reporter Assay in HEK-293T Cells; assay type: cell-based; conditions: HEK-293 cells; for Gal4-RORγ Assay Max Response: maximum response
T2 construct: expressed in transfected cells
T2 sequence (P51449 269-508 limits assumed): T1 sequence (P51449 269-508 limits assumed)
Method in brief: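 Max Response was taken as the upper plateau of a 4-parameter logistic fit of luciferase signal, normalized to 100 for wells without ursolic acid or compound. Transiently Gal4-RORγ-LBD/Gal4-luc transfected HEK-293 cells carrying […] ursolic acid were incubated with test compounds (0.2% DMSO) overnight at 37 °C and read with One-Glo.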

[3] = luciferase reporter, with ursolic acid
[4] = luciferase reporter, in presence of ursolic acid

| SMILES | EC50 ([1]; RORγ-LBD TR-FRET) | EC50 [2, 3] | EC50 ([1]; RORγ-LBD TR-FRET assay) | EC50 [2, 4] | TR-FRET Assay Max Response ([1]; RORγ-LBD TR-FRET assay) | also measured |
| --- | --- | --- | --- | --- | --- | --- |
| C/C(=C\c1ccc2c(c1)N(S(=O)(=O)c1cccc(C(F)(F)F)c1C)C[C@H](CCC(=O)O)O2)c1c(F)cccc1Cl [Example 86AM, (S,E)-3-(6-(2-(2-chloro-6-fluorophenyl)prop-1-en-1-yl)-4-((2-methyl-3-(trifluoromethyl)-phenyl)sulfonyl)-3,4-dihydro-2H-benzo[i,4]oxazin-2-yl)propanoic acid] | < 0.5 µM | 0.5 to 5 µM | – | – | – | – |
| CCOc1nn(CC)cc1S(=O)(=O)N1C[C@H](CCC(=O)O)Oc2ccc(/C=C/c3ccccc3Cl)cc21 [Example 89BC, (S,E)-3-(6-(2-chlorostyryl)-4-((3-ethoxy-1-ethyl-1H-pyrazol-4-yl)sulfonyl)-3,4-dihydro-2H-benzo[b][1,4]oxazin-2-yl)propanoic acid] | < 0.5 µM | 0.5 to 5 µM | – | – | – | – |
| COc1cc(S(=O)(=O)N2c3cc(OC4CCc5ccccc54)ccc3C[C@@H](C(=O)O)[C@H]2C)ccc1F (mixture of isomers) [Example 22, (2R,3R)-7-((2,3-Dihydro-1H-inden-1-yl)oxy)-1-((4-fluoro-3-methoxy-phenyl)sulfonyl)-2-methyl-1,2,3,4-tetrahydroquinoline-3-carboxylic acid] | < 0.5 µM | 0.5 to 5 µM | – | – | – | – |
| CCOc1nn(CC)cc1S(=O)(=O)N1C[C@H](CCC(=O)O)Oc2ccc(/C=C/c3ccccc3OC(F)(F)F)cc21 [Example 89BA, (S,E)-3-(4-((3-ethoxy-1-ethyl-1H-pyrazol-4-yl)sulfonyl)-6-(2-(trifluoromethoxy)styryl)-3,4-dihydro-2H-benzo[b][1,4]oxazin-2-yl)propanoic acid] | < 0.5 µM | 0.5 to 5 µM | – | – | – | – |
| CCOc1nn(CC)cc1S(=O)(=O)N1C[C@H](CCC(=O)OC)Oc2ccc(/C=C/c3c(F)cccc3C(F)(F)F)cc21 [Example 87, Methyl (S,E)-3-(4-((3-ethoxy-1-ethyl-1H-pyrazol-4-yl)sulfonyl)-6-(2-fluoro-6-(trifluoromethyl)styryl)-3,4-dihydro-2H-benzo[b][1,4]oxazin-2-yl)propanoate] | < 0.5 µM | 0.5 to 5 µM | – | – | – | – |
| C/C(=C\c1ccc2c(c1)N(S(=O)(=O)c1cccc(C(F)(F)F)c1)CC(C(=O)O)C2)c1c(F)cccc1Cl (stereo not shown) | – | – | – | – | – | EC50 ([1]; with 2 μM ursolic acid (RORγ antagonist), highest test concentration 10 μM): < 0.5 µM; EC50 ([2]; ursolic acid present, luciferase readout): 0.5 to 5 µM |
| CC/C(=C\c1ccc2c(c1)N(S(=O)(=O)c1cccc(C(F)(F)F)c1)C[C@H](CCC(=O)OC)O2)c1ccccc1Cl [Example 35, Methyl (S,E)-3-(6-(2-(2-chlorophenyl)but-1-en-1-yl)-4-((3-(trifluoromethyl)phenyl)sulfonyl)-3,4-dihydro-2H-benzo[b][1,4]oxazin-2-yl)propanoate] | < 0.5 µM | 0.5 to 5 µM | – | – | – | – |
| COc1cc(S(=O)(=O)N2CCCc3ccc(OCc4c(Cl)cccc4C(F)(F)F)cc32)ccc1F [Example 25Q, 7-((2-chloro-6-(trifluoromethyl)benzyl)oxy)-1-((4-fluoro-3-methoxyphenyl)sulfonyl)-1,2,3,4-tetrahydroquinoline] | < 0.5 µM | < 0.5 µM | – | – | – | – |
| COC(=O)CC[C@H]1CN(S(=O)(=O)c2cccc(OC(F)F)c2)c2cc(/C=C(\C)c3c(F)cccc3Cl)c(C)cc2O1 [Example 53, (S,E)-Methyl 3-(6-(2-(2-chloro-6-fluorophenyl)prop-1-en-1-yl)-4-((3-(difluoromethoxy)phenyl)sulfonyl)-7-methyl-3,4-dihydro-2H-benzo[b][1,4]oxazin-2-yl)propanoate] | < 0.5 µM | 0.5 to 5 µM | – | – | – | – |

The next lines start with results.

| EC50 ([1]; RORγ-LBD TR-FRET) | EC50 [2, 3] | EC50 ([1]; RORγ-LBD TR-FRET assay) | EC50 [2, 4] | SMILES | TR-FRET Assay Max Response ([1]; RORγ-LBD TR-FRET assay) | also measured |
| --- | --- | --- | --- | --- | --- | --- |
| – | – | < 0.5 µM | < 0.5 µM | C/C(=C\c1ccc2c(c1)N(S(=O)(=O)c1cccc(C(F)(F)F)c1)C[C@H](CCCN1CCOCC1)O2)c1c(F)cccc1Cl [Example 119D, (S,E)-6-(2-(2-chloro-6-fluorophenyl)prop-1-en-1-yl)-2-(3-morpholinopropyl)-4-((3-(trifluoromethyl)-phenyl)sulfonyl)-3,4-dihydro-2H-benzo[b][1,4]oxazine] | *** (a value in the range of greater than 150 to 200) | Gal4-RORγ Assay Max Response [2, 4]: ** (a value in the range of greater than 90 to 150) |
| – | – | < 0.5 µM | 0.5 to 5 µM | C/C(=C\c1ccc2c(c1)N(S(=O)(=O)c1cccc(C(F)(F)F)c1)C[C@H](CCNC(=O)OC(C)(C)C)O2)c1c(F)cccc1Cl [Example 110, tert-Butyl (S,E)-(2-(6-(2-(2-chloro-6-fluorophenyl)prop-1-en-1-yl)-4-((3-(trifluoromethyl)phenyl)sulfonyl)-3,4-dihydro-2H-benzo[b][1,4]oxazin-2-yl)ethyl)carbamate] | *** (a value in the range of greater than 150 to 200) | Gal4-RORγ Assay Max Response [2, 4]: ** (a value in the range of greater than 90 to 150) |
| 5 to 10 µM | > 10 µM | – | – | CCOc1nn(CC)cc1S(=O)(=O)N1C[C@H](CCC(=O)OC)Oc2ccc(/C=C/c3nccs3)cc21 [Example 89R, (S,E)-methyl 3-(4-((3-ethoxy-1-ethyl-1H-pyrazol-4-yl)sulfonyl)-6-(2-(thiazol-2-yl)vinyl)-3,4-dihydro-2H-benzo[b][1,4]oxazin-2-yl)propanoate] | – | – |
| – | – | < 0.5 µM | > 10 µM | CC/C(C)=C\c1ccc2c(c1)N(S(=O)(=O)c1cc(C(F)(F)F)cnc1OCCO)C[C@H](CCC(=O)O)O2 [Example 191D, (S,Z)-3-(4-((2-(2-hydroxyethoxy)-5-(trifluoromethyl)pyridin-3-yl)sulfonyl)-6-(2-methylbut-1-en-1-yl)-3,4-dihydro-2H-benzo[b][1,4]oxazin-2-yl)propanoic acid] | ** (a value in the range of greater than 90 to 150) | – |
| – | – | < 0.5 µM | > 10 µM | CCn1cc(S(=O)(=O)N2C[C@H]([C@@H](C)NS(C)(=O)=O)Oc3ccc(/C=C(\C)c4c(F)cccc4Cl)cc32)c(Cl)n1 [Example 104, N—((R)-1-((R)-4-((3-Chloro-1-ethyl-1H-pyrazol-4-yl)sulfonyl)-6-((E)-2-(2-chloro-6-fluorophenyl)prop-1-en-1-yl)-3,4-dihydro-2H-benzo[b][1,4]oxazin-2-yl)ethyl)methanesulfonamide] | *** (a value in the range of greater than 150 to 200) | – |
| – | – | < 0.5 µM | 0.5 to 5 µM | CCn1cc(S(=O)(=O)N2C[C@H](CNC(C)=O)Oc3ccc(/C=C/c4ncccc4Cl)cc32)c(Cl)n1 [Example 109E, (S,E)-N-((4-((3-chloro-1-ethyl-1H-pyrazol-4-yl)sulfonyl)-6-(2-(3-chloropyridin-2-yl)vinyl)-3,4-dihydro-2H-benzo[b][1,4]-oxazin-2-yl)methyl)acetamide] | **** (a value greater than 200) | Gal4-RORγ Assay Max Response [2, 4]: ** (a value in the range of greater than 90 to 150) |
| < 0.5 µM | > 10 µM | – | – | COC(=O)CC[C@H]1CN(S(=O)(=O)c2cccc(OC(F)F)c2)c2cc(/C=C/c3ncccn3)ccc2O1 [Example 89H, (S,E)-methyl 3-(4-((3-(difluoromethoxy)-phenyl)sulfonyl)-6-(2-(pyrimidin-2-yl)vinyl)-3,4-dihydro-2H-benzo[b][1,4]oxazin-2-yl)propanoate] | – | – |
| – | – | < 0.5 µM | 0.5 to 5 µM | C/C(=C\c1ccc2c(c1)N(S(=O)(=O)c1cccc(C(F)(F)F)c1)CCC2(F)F)c1c(F)cccc1Cl [Example 189, (E)-7-(2-(2-Chloro-6-fluorophenyl)prop-1-en-1-yl)-4,4-difluoro-1-((3-(trifluoromethyl)phenyl)sulfonyl)-1,2,3,4-tetrahydroquinoline] | *** (a value in the range of greater than 150 to 200) | Gal4-RORγ Assay Max Response [2, 4]: ** (a value in the range of greater than 90 to 150) |
| > 10 µM | > 10 µM | – | – | CCOc1nn(CC)cc1S(=O)(=O)N1C[C@H](CCC(=O)O)Oc2ccc(/C=C/c3ccc(Cl)cc3)cc21 [Example 89DB, (S,E)-3-(6-(4-chlorostyryl)-4-((3-ethoxy-1-ethyl-1H-pyrazol-4-yl)sulfonyl)-3,4-dihydro-2H-benzo[b][1,4]oxazin-2-yl)propanoic acid] | – | – |
| – | – | < 0.5 µM | 0.5 to 5 µM | CCOc1ncc(C(F)(F)F)cc1S(=O)(=O)N1C[C@H](CNC(=O)CCC(=O)O)Oc2ccc(/C=C/c3c(F)cccc3Cl)cc21 [Example 109F, (S,E)-4-(((6-(2-chloro-6-fluorostyryl)-4-((2-ethoxy-5-(trifluoro-methyl)pyridin-3-yl)sulfonyl)-3,4-dihydro-2H-benzo[b][1,4]oxazin-2-yl)methyl)amino)-4-oxobutanoic acid] | *** (a value in the range of greater than 150 to 200) | Gal4-RORγ Assay Max Response [2, 4]: ** (a value in the range of greater than 90 to 150) |
| < 0.5 µM | 0.5 to 5 µM | – | – | O=C(O)CC[C@H]1CN(S(=O)(=O)c2cc(C(F)(F)F)cnc2OCC(O)CO)c2cc(/C=C/c3c(F)cccc3Cl)ccc2O1 (stereo partly drawn) [Example 89FJ, 3-((2S)-6-((E)-2-chloro-6-fluorostyryl)-4-((2-(2,3-dihydroxypropoxy)-5-(trifluoromethyl)pyridin-3-yl)sulfonyl)-3,4-dihydro-2H-benzo[b][1,4]oxazin-2-yl)propanoic acid] | – | – |
